In ChEMBL document CHEMBL2424559, “Design, synthesis and antitubercular evaluation of novel 2-substituted-3H-benzofuro benzofurans via palladium-copper catalysed Sonagashira coupling reaction” (Bioorg Med Chem Lett, 2013):
Values after ≈ are worked out from the molar mass of the structure shown.

Key:
[1] = Lipophilicity, log P of the compound; assay type: physicochemical; conditions: octanol/water
[2] = Cytotoxicity against HEK293T cells at 50 ug/ml after 72 hrs by MTT assay; assay type: cell-based, HEK-293T; conditions: human, read-out: INH
[3] = system: Mycobacterium tuberculosis; assay: microbe, parasite or virus in culture; conditions: H37Rv ATCC 27294, 672 h
Description: Antimycobacterial activity against Mycobacterium tuberculosis H37Rv ATCC 27294 after 28 days by agar dilution method

[4] = Therapeutic index, ratio of inhibition of HEK293T cells to MIC for Mycobacterium tuberculosis H37Rv ATCC 27294; assay type: cell-based, HEK-293T; conditions: human, read-out: TI

Compound | logP [1] | cytotoxicity at 72 h, 50 ug/ml [2] [%] | MIC [3] [µg/mL] | selectivity ratio [4]
FC(F)(F)Oc1ccc(-c2cc3c(ccc4oc5ccccc5c43)o2)cc1 | 5.57 | 72.1 | 50 (≈ 136 µM) | –
Fc1ccc(-c2cc3c(ccc4oc5ccccc5c43)o2)c(F)c1 | 4.36 | 34.1 | 50 (≈ 156 µM) | –
COc1ccc(-c2cc3c(ccc4oc5ccccc5c43)o2)c(C)c1 | 4.4 | 32.1 | 3.12 (≈ 9.5 µM) | > 10
COc1ccc(-c2cc3c(ccc4oc5ccccc5c43)o2)cc1 | 3.92 | 13.8 | 50 (≈ 159 µM) | –
NC(=O)c1cnccn1 [PYRAZINAMIDE] | – | – | 50 (≈ 406 µM) | –
CC[C@@H](CO)NCCN[C@@H](CC)CO [ETHAMBUTOL] | – | – | 3.13 (≈ 15.3 µM) | –
CCCCCCc1cc2c(ccc3oc4ccccc4c32)o1 | 4.8 | 32.1 | 6.25 (≈ 21.4 µM) | –
c1ccc(-c2cc3c(ccc4oc5ccccc5c43)o2)cc1 | 4.04 | 32.1 | 6.25 (≈ 22 µM) | –
c1ccc2c(c1)oc1ccc3oc(-c4ccsc4)cc3c12 | 3.97 | 23.1 | 50 (≈ 172 µM) | –
Cc1cccc(-c2cc3c(ccc4oc5ccccc5c43)o2)c1 | 4.53 | 56.8 | 12.5 (≈ 41.9 µM) | –
Cc1ccc(-c2cc3c(ccc4oc5ccccc5c43)o2)cc1 | 4.53 | 21.6 | 6.25 (≈ 20.9 µM) | –
NNC(=O)c1ccncc1 [ISONIAZID] | – | – | 0.1 (≈ 0.729 µM) | –
CCCCCc1ccc(-c2cc3c(ccc4oc5ccccc5c43)o2)cc1 | 5.78 | 40.2 | 12.5 (≈ 35.3 µM) | –
